The values that follow come from PMC11748363, “Antimicrobial and Antiproliferative Properties of 2‐Phenyl‐N‐(Pyridin‐2‐yl)acetamides” (Chemical Biology & Drug Design, 2025).

The subject of data set [1] is Mycobacterium tuberculosis H37Ra. Also on record: method as in Nawrot et al. 2021. Conditions: previously published N‐pyridinyl benzamides; ref Nawrot et al. 2021; cited from earlier work.
For data set [2] the test system is unchanged. As to the kind of experiment: Antimycobacterial microdilution broth MIC (resazurin), Mtb H37Ra. Conditions: for MIC: Mycobacterium tuberculosis, H37RA, read-out: MIC Mtb H37Ra. Format: cell-based.
Data set [3] deals with Mycolicibacterium smegmatis DSM 43465. As to the kind of experiment: Antimycobacterial microdilution broth MIC (resazurin), M. smegmatis. Conditions: DSM43465, read-out: MIC M. smegmatis. It is filed as cell-based.
Data set [4] relates to Mycolicibacterium aurum DSM 43999. The data set is described as follows: Antimycobacterial microdilution broth MIC (resazurin), M. aurum. Format: cell-based. The settings on record: DSM43999, read-out: MIC M. aurum.
Data set [5] deals with Mycobacterium tuberculosis H37Rv. As to the kind of experiment: Microplate Alamar Blue Assay MIC, Mtb H37Rv. It is filed as cell-based.
In data set [6] the test system is M. kansasii CNCTC My 235/80. The data set is described as follows: Microplate Alamar Blue Assay MIC, M. kansasii. Format: cell-based.
Data set [7] deals with M. avium ssp. avium CNCTC My 80/72. The data set is described as follows: Microplate Alamar Blue Assay MIC, M. avium. Format: cell-based.
The next data set relates to HepG2 cell line. As to the kind of experiment: Cytotoxicity CellTiter 96, HepG2. Format: cell-based, human. Conditions: Homo sapiens, HepG2, 24 h, 24 h incubation; ^c compound precipitated in the testing medium; ^d over the limit of tested concentrations.
Data set [8] has as its system Staphylococcus aureus CCM 4223, ATCC 29213. As to the kind of experiment: Antibacterial microdilution broth MIC, SA. The settings on record: for MIC: Staphylococcus aureus. Format: cell-based.
Data set [9] relates to Staphylococcus aureus subsp. aureus CCM 4750, ATCC 43300 (MRSA). As to the kind of experiment: Antibacterial microdilution broth MIC, MRSA. It is filed as cell-based. Conditions: for MIC: Staphylococcus aureus.
Data set [10] relates to Staphylococcus epidermidis CCM 4418, ATCC 12228. As to the kind of experiment: Antibacterial microdilution broth MIC, SE. Format: cell-based.
Data set [11] relates to Enterococcus faecalis CCM 4224, ATCC 29212. As to the kind of experiment: Antibacterial microdilution broth MIC, EF. It is filed as cell-based.
The subject of data set [12] is Escherichia coli CCM 3954, ATCC 25922. The data set is described as follows: Antibacterial microdilution broth MIC, EC. Format: cell-based.
In data set [13] the test system is Acinetobacter baumannii DSM 30007, ATCC 19606. The data set is described as follows: Antibacterial microdilution broth MIC, ACI. It is filed as cell-based.
In data set [14] the test system is Pseudomonas aeruginosa CCM 3955, ATCC 27853. As to the kind of experiment: Antibacterial microdilution broth MIC, PA. Format: cell-based.
Data set [15] concerns Candida albicans CCM 8320, ATCC 24433. The data set is described as follows: Antifungal microdilution broth MIC, CA.
The test system of data set [16] is Candida krusei CCM 8271, ATCC 6258. The data set is described as follows: Antifungal microdilution broth MIC, CK. Conditions: Pichia kudriavzevii.
Data set [17] has as its system Candida parapsilosis CCM 8260, ATCC 22019. As to the kind of experiment: Antifungal microdilution broth MIC, CP. Conditions: Lodderomyces parapsilosis.
The test system of data set [18] is Candida tropicalis CCM 8264, ATCC 750. The data set is described as follows: Antifungal microdilution broth MIC, CT.
Data set [19] concerns Aspergillus fumigatus ATCC 204305. As to the kind of experiment: Antifungal microdilution broth MIC, AF.
The subject of data set [20] is Lichtheimia corymbifera CCM 8077. As to the kind of experiment: Antifungal microdilution broth MIC, LC.
The test system of data set [21] is Trichophyton interdigitale CCM 8377, ATCC 9533. As to the kind of experiment: Antifungal microdilution broth MIC, TI. Conditions: for MIC: Trichophyton interdigitale.
Data set [22] has as its system Aspergillus flavus CCM 8363. As to the kind of experiment: Antifungal microdilution broth MIC, AFla.
In data set [23] the test system is Klebsiella pneumoniae CCM 4415, ATCC 10031. The data set is described as follows: Antibacterial microdilution broth MIC, KP.

Converted amounts (≈) assume the structure as drawn. Read-outs that look alike come from different tables or passages of the source.

For `O=C(Nc1ccc(Cl)cn1)c1ccc(Cl)cc1` [C00003 R1=5-Cl,R2=4-Cl], the “MIC Mtb H37Ra (μg/mL), previously published compounds” value (“MIC Mtb H37Ra (μg/mL)” for short) in [1] was more than 500 µg/mL.
With `COc1ccc(C(=O)Nc2ccc(Cl)cn2)cc1` [C00003 R1=5-Cl,R2=4-OMe], the “MIC Mtb H37Ra (μg/mL)” value in data set [1] is 62.5 µg/mL (≈ 238 µM).
On to `O=C(Nc1ccc(Cl)cn1)c1ccccc1` [C00003 R1=5-Cl,R2=H], for which the “MIC Mtb H37Ra (μg/mL)” value in [1] was more than 500 µg/mL.
For the molecule `O=C(Nc1cccc(Cl)n1)c1ccccc1Cl` [C00003 R1=6-Cl,R2=2-Cl], the “MIC Mtb H37Ra (μg/mL)” value in [1] was 62.5 µg/mL (≈ 234 µM).
As for `COc1ccccc1C(=O)Nc1cccc(Cl)n1` [C00003 R1=6-Cl,R2=2-OMe], in data set [1], the “MIC Mtb H37Ra (μg/mL)” value is more than 500 µg/mL.
Turning to `O=C(Nc1cccc(Cl)n1)c1cccc(C(F)(F)F)c1` [C00003 R1=6-Cl,R2=3-CF3], in data set [1], the “MIC Mtb H37Ra (μg/mL)” value is 7.81 µg/mL (≈ 26 µM).
Consider `O=C(Nc1cccc(Cl)n1)c1cccc(Cl)c1` [C00003 R1=6-Cl,R2=3-Cl], for which the “MIC Mtb H37Ra (μg/mL)” value in data set [1] is 15.625 µg/mL (≈ 58.5 µM).
Turning to `COc1cccc(C(=O)Nc2cccc(Cl)n2)c1` [C00003 R1=6-Cl,R2=3-OMe], the “MIC Mtb H37Ra (μg/mL)” value in data set [1] was 31.25 µg/mL (≈ 119 µM).
In the case of `O=C(Nc1cccc(Cl)n1)c1ccc(Cl)cc1` [C00003 R1=6-Cl,R2=4-Cl], the “MIC Mtb H37Ra (μg/mL)” value in data set [1] is more than 500 µg/mL.
For the molecule `COc1ccc(C(=O)Nc2cccc(Cl)n2)cc1` [C00003 R1=6-Cl,R2=4-OMe], the “MIC Mtb H37Ra (μg/mL)” value in data set [1] is 15.625 µg/mL (≈ 59.5 µM).
As to `O=C(Nc1cccc(Cl)n1)c1ccccc1` [C00003 R1=6-Cl,R2=H], the “MIC Mtb H37Ra (μg/mL)” value in [1] is 125 µg/mL (≈ 537 µM).
In the case of `O=C(Nc1ccccn1)c1ccccc1Cl` [C00003 R1=H,R2=2-Cl], the “MIC Mtb H37Ra (μg/mL)” value in data set [1] was more than 500 µg/mL.
On to `COc1ccccc1C(=O)Nc1ccccn1` [C00003 R1=H,R2=2-OMe], for which, in data set [1], the “MIC Mtb H37Ra (μg/mL)” value was 31.25 µg/mL (≈ 137 µM).
Take `O=C(Nc1ccccn1)c1cccc(C(F)(F)F)c1` [C00003 R1=H,R2=3-CF3]: in data set [1], the “MIC Mtb H37Ra (μg/mL)” value is 31.25 µg/mL (≈ 117 µM).
`O=C(Nc1ccccn1)c1cccc(Cl)c1` [C00003 R1=H,R2=3-Cl]: the “MIC Mtb H37Ra (μg/mL)” value in data set [1] was 62.5 µg/mL (≈ 269 µM).
Consider `COc1cccc(C(=O)Nc2ccccn2)c1` [C00003 R1=H,R2=3-OMe], for which the “MIC Mtb H37Ra (μg/mL)” value in data set [1] was 62.5 µg/mL (≈ 274 µM).
With `O=C(Nc1ccccn1)c1ccc(Cl)cc1` [C00003 R1=H,R2=4-Cl], in data set [1], the “MIC Mtb H37Ra (μg/mL)” value is 62.5 µg/mL (≈ 269 µM).
On to `COc1ccc(C(=O)Nc2ccccn2)cc1` [C00003 R1=H,R2=4-OMe], for which, in [1], the “MIC Mtb H37Ra (μg/mL)” value was 62.5 µg/mL (≈ 274 µM).
With `O=C(Nc1ccccn1)c1ccccc1` [C00003 R1=H,R2=H], in [1], the “MIC Mtb H37Ra (μg/mL)” value was 250 µg/mL (≈ 1260 µM).
`O=C(Cc1ccc(Cl)cc1)Nc1cccc(Cl)n1` [Compound 21]: the MIC was 27.8 µM in data set [2] (Calculated from MIC (μg/mL)); 7.81 µg/mL in data set [2]; 15.6 µg/mL (≈ 55.6 µM) in data set [3]; 31.2 µg/mL (≈ 111 µM) in data set [4]; 6.25 µg/mL (≈ 22.2 µM) in [5] (Mycobacterium tuberculosis, H37RV); 25 µg/mL (≈ 88.9 µM) in data set [6] (Mycobacterium kansasii). Besides, the MIC is 6.25 µg/mL (≈ 22.2 µM) in data set [7] (Mycobacterium avium); 250 µM (≈ 70.3 µg/mL) in data set [8] (24 h, read-out: MIC SA 24h); more than 500 µM in [8] (48 h, read-out: MIC SA 48h); 250 µM (≈ 70.3 µg/mL) in [9] (24 h, read-out: MIC MRSA 24h); 500 µM (≈ 141 µg/mL) in data set [9] (48 h, read-out: MIC MRSA 48h); more than 500 µM in [10] (24 h, read-out: MIC SE 24h). The MIC is more than 500 µM in data set [10] (48 h, read-out: MIC SE 48h); more than 500 µM in [11] (24 h, read-out: MIC EF 24h); more than 500 µM in data set [11] (48 h, read-out: MIC EF 48h); more than 500 µM in data set [12] (24 h, read-out: MIC EC 24h); more than 500 µM in data set [12] (48 h, read-out: MIC EC 48h); more than 500 µM in data set [13] (24 h, read-out: MIC ACI 24h). For the same molecule, the MIC in data set [13] (48 h, read-out: MIC ACI 48h) is more than 500 µM; in data set [14] (24 h, read-out: MIC PA 24h) it was more than 500 µM; in [14] (48 h, read-out: MIC PA 48h), more than 500 µM; in data set [15] (24 h, read-out: MIC CA 24h), more than 500 µM; in data set [15] (48 h, read-out: MIC CA 48h) it was more than 500 µM; in data set [16] (24 h, read-out: MIC CK 24h), more than 500 µM. Further, the MIC was more than 500 µM in data set [16] (48 h, read-out: MIC CK 48h); more than 500 µM in [17] (24 h, read-out: MIC CP 24h); more than 500 µM in data set [17] (48 h, read-out: MIC CP 48h); more than 500 µM in data set [18] (24 h, read-out: MIC CT 24h); more than 500 µM in [18] (48 h, read-out: MIC CT 48h); more than 500 µM in data set [19] (ATCC204305, 24 h, read-out: MIC AF 24h). In addition, the MIC was more than 500 µM in data set [19] (ATCC204305, 48 h, read-out: MIC AF 48h); more than 500 µM in data set [20] (CCM8077, 24 h, read-out: MIC LC 24h); more than 500 µM in [20] (CCM8077, 48 h, read-out: MIC LC 48h); 62.5 µM (≈ 17.6 µg/mL) in data set [21] (72 h, read-out: MIC TI 72h); 125 µM (≈ 35.1 µg/mL) in data set [21] (120 h, read-out: MIC TI 120h); more than 500 µM in data set [22] (CCM8363, 24 h, read-out: MIC AFla 24h). For the same molecule, in data set [22] (CCM8363, 48 h, read-out: MIC AFla 48h), the MIC is more than 500 µM. Besides, in data set [2] (SI = HepG2 IC50 (μM)/MIC MtbH37Ra (μM), calculated for compounds with MIC ≤ 31.25 μg/mL), the “SI (selectivity index)” value is listed as 2.9. In addition, the “MIC M. kansasii” value in [6] was “additional activity”. Moreover, in data set [7], the “MIC M. avium” value is recorded as “additional activity”. In addition, the IC50 in the data set on HepG2 cell line was found to be 81.5 µM. Also, in [8] (Table 2), the “Antibacterial activity on SA” value is reported as 250 μM on SA, 250 μM on MRSA. In addition, the “Antibacterial activity on MRSA” value in data set [9] (Table 2) is reported as 250 μM on SA, 250 μM on MRSA. The “Antifungal activity on TI” value in data set [21] (Table 2) worked out at 62.5 μM on TI. Moreover, the “MIC KP 24h” value in data set [23] (24h) is more than 500 µM. Besides, the “MIC KP 48h” value in [23] (48h) is more than 500 µM.
`NNC(=O)c1ccncc1` [INH, isoniazid, reference compound]: the MIC in data set [2] (Calculated from MIC (μg/mL)) is 0.9 to 1.8 µM; in data set [2], 0.125 to 0.25 µg/mL; in data set [3] it was 7.81 to 15.6 µg/mL (≈ 56.9 to 114 µM); in data set [4] it was 3.91 to 7.81 µg/mL (≈ 28.5 to 56.9 µM). For the same molecule, the “MIC Mtb H37Rv” value in data set [5] is 0.1 to 0.2 µg/mL. Also, the “MIC M. kansasii” value in [6] is 3.13 to 12.5 µg/mL. The “MIC M. avium” value in data set [7] lay within 6.25 to 12.5 µg/mL.
